ChEMBL document CHEMBL1201862, “PubChem BioAssay data set” (2004)
Structures can show the parent of a compound that is named as a salt. Active and inactive are the calls of the source.

Assays:
[1] = tested on: BJ; assay: cells; assay type: functional, cell-based; settings: Homo sapiens
[2] = target: T1, Heat shock factor protein 1 (Mus musculus, UniProt P38532); assay: decrease of HSF1-responsive luciferase luminescence – cell-based, NIH3T3, dose retest, confirmation (AID 2382); assay type: functional;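 note: NIH3T3 fibroblasts with HSF1-driven luciferase reporter stressed by proteasome inhibitor MG132; luminescence from HSF1-driven luciferase expression after 8 hours of MG132 stress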
T1 sequence (P38532 whole entry): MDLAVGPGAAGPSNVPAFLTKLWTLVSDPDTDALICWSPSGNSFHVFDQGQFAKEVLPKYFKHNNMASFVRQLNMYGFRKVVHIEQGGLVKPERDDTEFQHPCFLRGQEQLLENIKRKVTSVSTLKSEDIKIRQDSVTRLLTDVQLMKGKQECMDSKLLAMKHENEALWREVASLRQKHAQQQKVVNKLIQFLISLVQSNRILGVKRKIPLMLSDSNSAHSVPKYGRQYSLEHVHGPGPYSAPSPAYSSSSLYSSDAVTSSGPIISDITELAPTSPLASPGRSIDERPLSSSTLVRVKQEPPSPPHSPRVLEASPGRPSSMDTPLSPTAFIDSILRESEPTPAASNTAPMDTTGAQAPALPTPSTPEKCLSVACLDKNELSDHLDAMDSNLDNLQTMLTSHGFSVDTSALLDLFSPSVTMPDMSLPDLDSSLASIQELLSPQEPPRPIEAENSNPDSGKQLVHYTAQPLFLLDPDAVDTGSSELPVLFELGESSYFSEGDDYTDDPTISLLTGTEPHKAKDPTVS

[3] = DRD fibroblast viability loss – cell-based, non-viral oncogenic, luminescence, dose response (AID 1934); assay type: functional; settings: Homo sapiens
[4] = tested on: BJ; assay: BJ-TERT-LT-ST fibroblast viability loss – cell-based, RAS-independent, luminescence, dose response (AID 1935); assay type: functional; settings: Homo sapiens;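 note: BJ fibroblasts immortalized with TERT plus LT and ST oncogenes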
[5] = tested on: BJ; assay: BJ-TERT fibroblast viability loss – cell-based, RAS-independent, luminescence, dose response (AID 1933); assay type: functional; settings: Homo sapiens
[6] = HEK-293T viability loss after treatment – luminescence, T-cell screen hits, cytotoxicity control for TCR NF-kB inhibitor project, dose response (AID 489026); assay type: functional, cell-based;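 note: cells exposed to compound about 14 hours before the viability readout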
[7] = A cytotoxicity screen of small molecule inhibitors of the PhoP region in Salmonella typhi identified in the primary screen. [Related pubchem assays: 1850, 1864, 1985 ]; assay type: functional
[8] = target: Cytochrome P450 2C9 (Homo sapiens, UniProt P11712)
Cytochrome P450 2C9, sequence (P11712 whole entry): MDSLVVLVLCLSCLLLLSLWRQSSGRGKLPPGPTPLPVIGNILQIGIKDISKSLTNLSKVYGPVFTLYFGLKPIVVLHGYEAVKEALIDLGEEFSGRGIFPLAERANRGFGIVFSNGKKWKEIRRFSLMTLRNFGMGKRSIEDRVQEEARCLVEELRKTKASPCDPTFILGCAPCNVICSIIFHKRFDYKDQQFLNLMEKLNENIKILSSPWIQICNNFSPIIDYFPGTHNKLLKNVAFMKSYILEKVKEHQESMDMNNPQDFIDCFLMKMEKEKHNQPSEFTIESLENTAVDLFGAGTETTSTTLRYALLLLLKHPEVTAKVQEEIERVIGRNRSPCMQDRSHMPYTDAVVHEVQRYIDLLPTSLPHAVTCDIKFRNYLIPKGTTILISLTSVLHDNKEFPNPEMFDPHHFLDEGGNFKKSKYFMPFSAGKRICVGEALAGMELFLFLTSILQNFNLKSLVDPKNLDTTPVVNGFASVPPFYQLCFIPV

[9] = target: T2, Cytochrome P450 1A2 (Homo sapiens, UniProt P05177);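 note: PubChem cytochrome P450 panel assay, CYP1A2 panel member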
T2 sequence (P05177 whole entry): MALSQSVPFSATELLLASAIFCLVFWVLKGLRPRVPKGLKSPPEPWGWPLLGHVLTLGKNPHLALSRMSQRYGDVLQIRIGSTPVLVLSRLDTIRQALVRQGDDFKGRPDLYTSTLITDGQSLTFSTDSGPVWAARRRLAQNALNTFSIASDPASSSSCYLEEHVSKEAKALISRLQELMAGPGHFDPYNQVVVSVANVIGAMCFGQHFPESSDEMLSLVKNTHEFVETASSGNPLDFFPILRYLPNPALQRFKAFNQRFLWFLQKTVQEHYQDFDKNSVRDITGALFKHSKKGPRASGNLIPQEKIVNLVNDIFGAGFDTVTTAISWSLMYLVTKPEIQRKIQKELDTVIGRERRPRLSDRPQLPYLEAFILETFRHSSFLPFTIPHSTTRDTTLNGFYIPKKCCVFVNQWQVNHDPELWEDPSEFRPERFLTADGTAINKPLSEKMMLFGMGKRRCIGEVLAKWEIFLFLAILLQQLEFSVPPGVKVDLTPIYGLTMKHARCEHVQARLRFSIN

[10] = target: Cytochrome P450 3A4 (Homo sapiens, UniProt P08684);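 note: CYP3A4 tested as one member of a cytochrome P450 panel screen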
Cytochrome P450 3A4, sequence (P08684 whole entry): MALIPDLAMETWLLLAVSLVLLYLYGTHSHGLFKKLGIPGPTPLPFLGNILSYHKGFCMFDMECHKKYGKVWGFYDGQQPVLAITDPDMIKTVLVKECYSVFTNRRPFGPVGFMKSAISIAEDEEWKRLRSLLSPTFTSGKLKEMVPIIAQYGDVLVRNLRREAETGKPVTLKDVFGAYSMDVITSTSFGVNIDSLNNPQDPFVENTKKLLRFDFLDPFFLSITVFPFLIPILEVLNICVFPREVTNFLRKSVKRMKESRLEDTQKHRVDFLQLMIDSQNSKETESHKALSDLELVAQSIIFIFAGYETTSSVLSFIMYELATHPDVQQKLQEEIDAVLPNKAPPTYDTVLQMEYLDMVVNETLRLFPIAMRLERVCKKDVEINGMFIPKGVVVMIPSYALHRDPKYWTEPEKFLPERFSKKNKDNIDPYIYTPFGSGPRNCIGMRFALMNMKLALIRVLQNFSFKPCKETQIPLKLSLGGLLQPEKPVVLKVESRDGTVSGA

[11] = target: Cytochrome P450 2C19 (Homo sapiens, UniProt P33261); assay: Cytochrome panel assay with activity outcomes. Panel member name: p450-cyp2c19 Compounds with AC50 equal or less than 10 uM are considered active; assay type: functional
Cytochrome P450 2C19, sequence (P33261 whole entry): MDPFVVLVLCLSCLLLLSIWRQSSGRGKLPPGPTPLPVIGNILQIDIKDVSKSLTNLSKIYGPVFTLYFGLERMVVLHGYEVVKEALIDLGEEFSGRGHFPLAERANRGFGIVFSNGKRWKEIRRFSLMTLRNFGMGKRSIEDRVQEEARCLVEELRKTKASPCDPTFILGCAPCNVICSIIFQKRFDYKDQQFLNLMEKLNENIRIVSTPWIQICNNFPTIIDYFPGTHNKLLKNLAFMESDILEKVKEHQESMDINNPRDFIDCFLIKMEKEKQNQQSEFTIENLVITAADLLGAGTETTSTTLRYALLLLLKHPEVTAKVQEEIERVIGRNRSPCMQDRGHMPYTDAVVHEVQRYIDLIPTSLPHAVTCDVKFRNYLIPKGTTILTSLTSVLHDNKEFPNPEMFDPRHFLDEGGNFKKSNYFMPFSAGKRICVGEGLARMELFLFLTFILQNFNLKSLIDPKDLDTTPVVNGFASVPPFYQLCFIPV

[12] = Luminescence Cell-Based Dose Confirmation HTS to Identify Activators of 5'UTR Stem-Loop Driven Alpha-Synuclein mRNA Translation in H4 Neuroglioblastoma Cells. [Related pubchem assays: 1829 (Project Summary), 1814 (Primary HTS)]; assay type: functional
[13] = tested on: H4; assay: Luminescence Cell-Based Dose Response HTS to Identify Activators of 5'UTR Stem-Loop Driven Prion Protein mRNA Translation in H4 Neuroglioblastoma Cells. [Related pubchem assays: 1829 (Project Summary), 1814 (Primary HTS)]; assay type: functional; settings: Homo sapiens
[14] = Luminescence Cell-Based Dose Response HTS to Identify Activators of Luciferase Translation or Activity in H4 […] Cells. [Related pubchem assays: 1829 (Project Summary), 1814 (Primary HTS)]; assay type: functional
[15] = Luminescence Cell-Based Dose Response HTS to Identify Inhibitors of 5'UTR Stem-Loop Driven Prion Protein mRNA Translation in H4 Neuroglioblastoma Cells. [Related pubchem assays: 1827 (Project Summary), 1813 (Primary HTS)]; assay type: functional
[16] = alpha-synuclein stem-loop luciferase translation blockers – H4 neuroglioma cells, luminescence, confirmation (AID 1988); assay type: functional, cell-based
[17] = luciferase reporter signal suppression in cells – H4 neuroglioma cells, luminescence, dose response (AID 1990); assay type: functional, cell-based
[18] = tested on: BJ; assay: growth inhibition of engineered Ras-driven BJ cells – cell-based, alamar blue fluorescence, cherrypicked samples, dose response (AID 2631); assay type: functional; settings: Homo sapiens;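 note: confirmatory dose-response assay in RAS-dependent BJ fibroblasts engineered with TERT, LT and ST, with cytotoxicity read by fluorescence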
[19] = non-specific 3'UTR reporter inhibition in Clone20-Shn3RL – cell-based, Renilla luciferase, cherry-picked, counter-screen for Shn3 inhibitor project, dose response (AID 624133); assay type: functional
[20] = reduction of Shn3 3'UTR-driven luciferase in osteoblasts – cell-based, Clone20 osteoblasts, firefly luciferase, cherry-picked, dose response (AID 624132); assay type: functional;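 note: firefly luciferase luminescence from reporter carrying the Shn3 3'UTR in osteoblasts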
[21] = tested on: Streptococcus; assay: GAS UMAA2166 growth inhibition – luminescence, BacTiterGlo, counter-screen for streptokinase expression inhibitor project, dose response (AID 1915); assay type: functional, organism-based;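 note: potency for reduction of bacterial viability or growth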
[22] = target: T3, Carboxy-terminal domain RNA polymerase II polypeptide A small phosphatase 1 (Homo sapiens, UniProt Q9GZU7); assay: CTDSP1 inhibitors, concentration-response, biochemical, absorbance readout, ultra-high-throughput screen actives (AID 540297); assay type: functional
T3 sequence (Q9GZU7 whole entry): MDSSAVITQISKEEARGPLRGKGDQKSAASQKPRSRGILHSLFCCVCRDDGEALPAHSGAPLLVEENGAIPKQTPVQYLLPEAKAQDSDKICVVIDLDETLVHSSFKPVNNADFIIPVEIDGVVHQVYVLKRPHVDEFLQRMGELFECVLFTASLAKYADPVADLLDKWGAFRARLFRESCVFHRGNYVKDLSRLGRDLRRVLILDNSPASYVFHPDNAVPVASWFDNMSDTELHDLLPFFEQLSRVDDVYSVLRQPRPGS

[23] = target: T4, Streptokinase A (Streptococcus pyogenes serotype M1, UniProt P10520); assay: viability-normalized secreted streptokinase activity reduction – plasminogen activation absorbance, OD405, dose response (AID 1914); assay type: functional, Streptococcus pyogenes M1 GAS;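 note: secreted streptokinase activity via plasminogen activation per viability signal from cell pellet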
T4 sequence (P10520 whole entry): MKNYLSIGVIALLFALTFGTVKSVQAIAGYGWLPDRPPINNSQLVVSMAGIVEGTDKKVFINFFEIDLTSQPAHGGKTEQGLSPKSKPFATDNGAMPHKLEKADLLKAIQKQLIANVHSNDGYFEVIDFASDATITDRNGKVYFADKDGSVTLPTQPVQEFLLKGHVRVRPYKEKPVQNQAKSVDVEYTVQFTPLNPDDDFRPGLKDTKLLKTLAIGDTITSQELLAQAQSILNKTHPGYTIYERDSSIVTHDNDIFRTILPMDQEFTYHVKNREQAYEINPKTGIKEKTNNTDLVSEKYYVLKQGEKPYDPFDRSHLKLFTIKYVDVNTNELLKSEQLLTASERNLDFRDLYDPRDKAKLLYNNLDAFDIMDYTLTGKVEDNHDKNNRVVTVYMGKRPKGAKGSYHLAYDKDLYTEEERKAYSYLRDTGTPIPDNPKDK

[24] = tested on: Streptococcus sp. 'group A'; assay: Streptococcus pyogenes SK(-)GAS viability under kanamycin – luminescence, BacTiterGlo, confirmation, counter-screen for streptokinase expression inhibitor project, dose response (AID 1900); assay type: functional, organism-based
[25] = target: T5, Calpain-2 catalytic subunit (Sus scrofa, UniProt P43367); assay: m-calpain protease blockers, concentration series – biochemical, fluorogenic peptide substrate, dose response (AID 1420); assay type: functional
T5 sequence (P43367 whole entry): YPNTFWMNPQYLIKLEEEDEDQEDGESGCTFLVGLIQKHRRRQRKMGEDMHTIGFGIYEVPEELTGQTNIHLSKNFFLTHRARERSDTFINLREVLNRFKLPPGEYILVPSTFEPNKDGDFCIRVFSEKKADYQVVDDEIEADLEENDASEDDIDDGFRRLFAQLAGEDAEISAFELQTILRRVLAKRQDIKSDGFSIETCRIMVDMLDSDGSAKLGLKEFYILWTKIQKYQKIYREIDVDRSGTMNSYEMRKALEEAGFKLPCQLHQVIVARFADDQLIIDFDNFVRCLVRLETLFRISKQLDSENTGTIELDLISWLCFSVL

[26] = target: Cytochrome P450 2D6 (Homo sapiens, UniProt P10635);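 note: CYP2D6 member of a cytochrome P450 panel assay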
Cytochrome P450 2D6, sequence (P10635 whole entry): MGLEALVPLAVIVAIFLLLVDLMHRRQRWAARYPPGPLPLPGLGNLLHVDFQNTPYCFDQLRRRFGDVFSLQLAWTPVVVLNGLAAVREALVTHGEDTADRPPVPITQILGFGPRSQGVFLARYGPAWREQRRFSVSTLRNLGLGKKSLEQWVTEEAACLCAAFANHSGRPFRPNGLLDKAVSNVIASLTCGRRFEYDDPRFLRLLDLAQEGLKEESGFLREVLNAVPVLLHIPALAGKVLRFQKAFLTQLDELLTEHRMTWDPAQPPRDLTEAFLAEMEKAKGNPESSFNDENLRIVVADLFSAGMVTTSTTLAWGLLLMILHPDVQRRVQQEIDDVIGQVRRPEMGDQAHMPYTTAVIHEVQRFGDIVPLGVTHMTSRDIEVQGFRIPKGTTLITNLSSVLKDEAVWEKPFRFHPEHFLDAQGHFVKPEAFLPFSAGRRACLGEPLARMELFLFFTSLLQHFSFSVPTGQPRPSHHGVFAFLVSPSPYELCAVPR

[27] = microbe, parasite or virus in culture; assay type: functional; settings: Mycobacterium tuberculosis
[28] = THP-1 cell cytotoxicity, dose response, cytotoxicity control for non-replicating M. tuberculosis project (AID 489025); assay type: functional
[29] = cells; assay type: functional

## Cc1ccc(C(=O)Nc2cc3ccccc3oc2=O)cc1
[1]
  EC50: 9.35 µM (active)
[2]
  EC50: 0.21 µM (active)
[3]
  EC50: 6.97 µM (active)
[4]
  EC50: 24 µM (active)
[5]
  EC50: 18.4 µM (active)
[6]
  IC50: > 80 µM (inactive)

## C=C(C)Cn1c(-c2ccc(OC)cc2)nc2ccccc21
[7]
  EC50: > 50 µM (active)

## COc1ccccc1N1CCN(C[C@@H]2CN3C(=O)N(C)c4ccccc4C3=N2)CC1
[8]
  AC50: inconclusive
[9]
  AC50: 31.6 µM (inconclusive)

## COc1ccc(/C=C/C(=O)Nc2cc(C(F)(F)F)ccc2Cl)cc1
[8]
  AC50: inconclusive
[10]
  AC50: 10 µM (inconclusive)
[11]
  AC50: 0.00631 µM (inconclusive)

## COc1cc(OC)cc(C(=O)Nc2ccccc2C(=O)N2CCCC2)c1
[8]
  AC50: inconclusive
[12]
  EC50: > 120 µM (not active)
[13]
  EC50: > 120 µM (not active)
[9]
  AC50: 14.1 µM (inconclusive)
[14]
  EC50: > 120 µM (not active)

## Cc1noc(C)c1COc1cccc(C(=O)OCC(=O)N2CC(=O)Nc3ccccc32)c1
[6]
  IC50: > 80 µM (inactive)

## CCO[C@@H]1OC(C(=O)NCc2nc3ccccc3[nH]2)=C[C@H](C(C)(C)C)[C@H]1CCCO
[15]
  EC50: 10.5 µM (active)
[16]
  EC50: 0.297 µM (inconclusive)
[6]
  IC50: > 80 µM (inactive)
[17]
  EC50: > 60 µM (not active)

## CS(=O)(=O)c1cnc2c(-c3ccc(F)cc3)cnn2c1N
[10]
  AC50: 28.2 µM (inconclusive)
[7]
  EC50: > 50 µM (active)

## CC1CCCCC1N(C)C1CCN(C(=O)CNC(=O)/C=C/c2cccc(Cl)c2)CC1 (configuration not stated)
[1]
  EC50: 2.79 µM (active)
[3]
  EC50: 3.46 µM (active)
[18]
  EC50: 1.51 µM (active)
[4]
  EC50: 2.63 µM (inconclusive)
[5]
  EC50: 2.72 µM (active)

## Cc1ccc(N2C(=O)c3cccc4c([N+](=O)[O-])ccc(c34)C2=O)c2cccnc12
[1]
  EC50: 26.5 µM (inconclusive)
[3]
  EC50: 5.37 µM (inconclusive)
[18]
  EC50: 0.782 µM (active)
[19]
  AC50: 29.5 µM (active)
[4]
  EC50: 3.88 µM (inconclusive)
[5]
  EC50: 2.21 µM (inconclusive)
[20]
  AC50: 5.68 µM (active)

## Cc1ccc2[nH]c(O)c(N=NC(=O)c3ccc(NS(=O)(=O)c4cccs4)cc3)c2c1
[21]
  EC50: 16.3 µM (active)
[22]
  IC50: 11.5 µM (active)
[23]
  EC50: > 150 µM (not active)
[24]
  EC50: 0.429 µM (active)

## O=C1CC(c2cccc(Br)c2)c2cc3c(cc2N1)CCC3 (configuration not stated)
[25]
  IC50: > 50 µM (not active)
[6]
  IC50: > 80 µM (inactive)

## Fc1ccc(NC(S)=NCc2ccccc2Cl)cc1
[7]
  EC50: > 50 µM (active)

## c1ccc(-c2nc3ccccc3[nH]2)cc1
[2]
  EC50: > 195 µM (not active)
[7]
  EC50: > 50 µM (active)

## Cc1ccc(SCc2ccc(C(=O)Nc3cc([N+](=O)[O-])ccc3C)cc2)cc1
[26]
  AC50: 3.16 µM (inconclusive)
[8]
  AC50: inconclusive
[10]
  AC50: 8.91 µM (inconclusive)

## Cn1cnc(C(=O)N2CCc3ccccc3C2)c1C(=O)N1CCc2ccccc2C1
[22]
  IC50: 4.36 µM (active)

## COc1ccccc1N1CCN(C(=O)c2ccc(-c3ccc(Cl)cc3)o2)CC1
[6]
  IC50: 72.7 µM (inactive)

## N#Cc1ccccc1S(=O)(=O)N1CCN(C(=O)c2cc3c(s2)CCC3)CC1
[22]
  IC50: 5.88 µM (active)

## Cc1nnc(SCC(=O)Nc2nsc(-c3ccc(Cl)cc3)n2)s1
[22]
  IC50: 15.2 µM (active)

## COc1ccc(OC)c(NC(=O)CSc2sc3c(O)cc(=O)[nH]c3c2C#N)c1
[22]
  IC50: 5.22 µM (active)

## Cc1ccc(S(=O)(=O)/N=C(\CCl)N2CCOCC2)cc1
[27]
  CC50: > 40 µM (active)
[28]
  CC50: 30.1 µM (active)
[29]
  IC50: 10.8 µM (active)

## Cn1nc(C(F)(F)F)c(/C=N/OC(=O)c2ccc(Cl)cc2)c1Cl
[8]
  AC50: inconclusive
[11]
  AC50: 10 µM (inconclusive)

## O=C1C2C3C=CC(CC3)C2C(=O)N1/N=C/c1ccc(O)cc1 (configuration not stated)
[7]
  EC50: > 50 µM (active)

## NC1CCN(c2nc3c(cc2F)c(=O)c(C(=O)O)cn3-c2ccc(F)cc2F)C1 (configuration not stated) [TOSUFLOXACIN TOSYLATE]
[21]
  EC50: 0.999 µM (active)
[24]
  EC50: 0.276 µM (active)
[7]
  EC50: > 50 µM (active)
